The test system of assay [1] is Hamigera avellanea IFO 7721. Kind of assay: Antifungal activity against Hamigera avellanea IFO 7721, paper disc method. The settings on record: IFO7721, paper disc 8 mm diameter, 0.02 ml of a 100 μg/ml solution, pH 7.0, read-out: Antifungal activity, φmm (zone of growth inhibition), Hamigera avellanea IFO 7721. In kind it is cell-based. Here is the method: On the other hand, the antifungal activity of the test compound is assayed against Hamigera avellanea IFO 7721 by the paper disc method, employing agar plates [each containing the medium consisting of 3.5 g of disodium phosphate 0.5 g monopotassium phosphate, 5 g yeast extract (Difco), 10 g glucose, 15 g agar, 1000 ml distilled water, and adjusted to pH 7.0]. Thus, on the plates inoculated with the above microorganism, the zones of growth inhibition are determined using paper discs (supplied by Toyo Seisakusho, Japan, thin-type, 8 mm diameter) immersed with 0.02 ml of a 100 μg/ml solution of 20-O-acylmaytansinoid compound (I).

The next assay concerns Tetrahymena pyriformis W. Kind of assay: Antiprotozoal activity against Tetrahymena pyriformis W, serial dilution method. The assay is classed as cell-based. The settings on record: 28° C., 44 to 48 hours, pH 7.0. Here is the method:
Then, with Tetrahymena pyriformis W strain used as the test microorganism and a medium composed of 20 g tryptose peptone (Difco), lg yeast extract, 2 g glucose, 1000 ml distilled water and 10 ml of a 1 M phosphate buffer of pH 7.0 as the assay medium, the microorganism is incubated at 28° C. for 44 to 48 hours, and the growth inhibitory activity of said antibiotic compound is assayed by the serial dilution method.

Values after ≈ are worked out from the molar mass of the structure shown.

As for `COC1/C=C/C=C(\C)Cc2cc(OC(C)=O)c(Cl)c(c2)N(C)C(=O)CC(OC(=O)C(C)C)C2(C)OC2C(C)C2CC1(O)NC(=O)O2` (stereo not drawn) [PDM-3 20-acetate], the zone of inhibition at 100 µg/mL in assay [1] turned out to be 31 mm. In addition, in the assay with Tetrahymena pyriformis W, the MIC came to 2 µg/mL (≈ 3.02 µM).
Consider `COC1/C=C/C=C(\C)Cc2cc(OC(=O)c3ccccc3)c(Cl)c(c2)N(C)C(=O)CC(OC(=O)C(C)C)C2(C)OC2C(C)C2CC1(O)NC(=O)O2` (stereo not drawn) [PDM-3 20-benzoate], for which the zone of inhibition at 100 µg/mL in assay [1] was 35 mm.
On the same count and under the same terms, in the case of `CCCC(=O)Oc1cc2cc(c1Cl)N(C)C(=O)CC(OC(=O)C(C)C)C1(C)OC1C(C)C1CC(O)(NC(=O)O1)C(OC)/C=C/C=C(\C)C2` (stereo not drawn) [PDM-3 20-butyrate] it was 40 mm; in that of `C/C=C/C(=O)Oc1cc2cc(c1Cl)N(C)C(=O)CC(OC(=O)C(C)C)C1(C)OC1C(C)C1CC(O)(NC(=O)O1)C(OC)/C=C/C=C(\C)C2` (stereo not drawn) [PDM-3 20-crotonate], 35 mm.
Still for that read-out and setting: in the case of `COC1/C=C/C=C(\C)Cc2cc(OC(=O)C3CCCCC3)c(Cl)c(c2)N(C)C(=O)CC(OC(=O)C(C)C)C2(C)OC2C(C)C2CC1(O)NC(=O)O2` (stereo not drawn) [PDM-3 20-cyclohexylcarboxylate, PDM-3 20-cyclohexanecarboxylate] it was 22 mm.
Still for that read-out and setting: as for `COC1/C=C/C=C(\C)Cc2cc(OC(=O)C(C)C)c(Cl)c(c2)N(C)C(=O)CC(OC(=O)C(C)C)C2(C)OC2C(C)C2CC1(O)NC(=O)O2` (stereo not drawn) [PDM-3 20-i-butyrate, PDM-3 20-isobutyrate], the figure is 40 mm.
As to `COC1/C=C/C=C(\C)Cc2cc(OC(=O)CC(C)C)c(Cl)c(c2)N(C)C(=O)CC(OC(=O)C(C)C)C2(C)OC2C(C)C2CC1(O)NC(=O)O2` (stereo not drawn) [PDM-3 20-i-valerate, PDM-3 20-isovalerate], the zone of inhibition at 100 µg/mL in assay [1] is 44 mm. The compound further had an MIC in the assay with Tetrahymena pyriformis W of 2 µg/mL (≈ 2.84 µM).
Take `COC1/C=C/C=C(\C)Cc2cc(OC(=O)c3ccccc3Br)c(Cl)c(c2)N(C)C(=O)CC(OC(=O)C(C)C)C2(C)OC2C(C)C2CC1(O)NC(=O)O2` (stereo not drawn) [PDM-3 20-o-bromobenzoate, PDM-3 20-ortho-bromobenzoate]: the zone of inhibition at 100 µg/mL in assay [1] was 27 mm.
With `COC1/C=C/C=C(\C)Cc2cc(OC(=O)Cc3ccccc3)c(Cl)c(c2)N(C)C(=O)CC(OC(=O)C(C)C)C2(C)OC2C(C)C2CC1(O)NC(=O)O2` (stereo not drawn) [PDM-3 20-phenylacetate], in assay [1], the zone of inhibition at 100 µg/mL was 31 mm.
On to `COC1/C=C/C=C(\C)Cc2cc(OC(=O)Nc3ccccc3)c(Cl)c(c2)N(C)C(=O)CC(OC(=O)C(C)C)C2(C)OC2C(C)C2CC1(O)NC(=O)O2` (stereo not drawn) [PDM-3 20-phenylcarbamate], for which the zone of inhibition at 100 µg/mL in assay [1] turned out to be 16.5 mm. In the assay on Tetrahymena pyriformis W, this compound returned an MIC of no more than 1 µg/mL.
The matching figures for `COC1/C=C/C=C(\C)Cc2cc(OC(=O)c3ccccn3)c(Cl)c(c2)N(C)C(=O)CC(OC(=O)C(C)C)C2(C)OC2C(C)C2CC1(O)NC(=O)O2` (stereo not drawn) [PDM-3 20-picolinate]: 21 mm and 2 µg/mL (≈ 2.75 µM).
`CCC(=O)Oc1cc2cc(c1Cl)N(C)C(=O)CC(OC(=O)C(C)C)C1(C)OC1C(C)C1CC(O)(NC(=O)O1)C(OC)/C=C/C=C(\C)C2` (stereo not drawn) [PDM-3 20-propionate]: the zone of inhibition at 100 µg/mL in assay [1] turned out to be 34 mm. In the assay on Tetrahymena pyriformis W, this compound displayed an MIC of 2 µg/mL (≈ 2.95 µM).
Turning to `CCCCC(=O)Oc1cc2cc(c1Cl)N(C)C(=O)CC(OC(=O)C(C)C)C1(C)OC1C(C)C1CC(O)(NC(=O)O1)C(OC)/C=C/C=C(\C)C2` (stereo not drawn) [PDM-3 20-valerate], the zone of inhibition at 100 µg/mL in assay [1] is 44 mm.
